Source: the supplement of paper PMC10307832

Experiments:
Assay in all cases: relative viability (nuclei count vs DMSO), 5 days (fraction); higher = more cells survive
[1] = tested on: A-427
Outline: (§1)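 Relative viability equals treated-well nuclei counts divided by vehicle-well nuclei counts. Counts came from 4× images of lung cancer cell lines grown in 1536-well plates for 5 days after pin-tool dosing on the day after seeding. Dosing used one drug alone or a fixed anchor-drug dose plus five library-drug doses (not always all listed) in √10 steps, and values are medians of duplicate plates.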

[2] = tested on: CAL-12T
Outline: as §1

[3] = tested on: LK-2
Outline: as §1

[4] = tested on: NCI-H1623
Outline: as §1

[5] = tested on: NCI-H1648
Outline: as §1

[6] = tested on: NCI-H1651
Outline: as §1

[7] = tested on: NCI-H1755
Outline: as §1

[8] = tested on: A549
Outline: as §1

[9] = tested on: Calu-6
Outline: as §1

[10] = tested on: EBC-1
Outline: as §1

[11] = tested on: IA-LM
Outline: as §1

[12] = tested on: NCI-H1299
Outline: as §1

[13] = tested on: NCI-H1703
Outline: as §1

Which relative viability ([1]; first compound 0.02 µM) does the source give for CN1CCN(CCOc2cc(OC3CCOCC3)c3c(Nc4c(Cl)ccc5c4OCO5)ncnc3c2)CC1 [Saracatinib] + COc1cccc2cc(-c3nc([C@H]4CC[C@H](C(=O)O)CC4)n4ncnc(N)c34)[nH]c12 [OSI-027] (partner 0.5 µM) here?
The relative viability was 0.506.

What about the relative viability ([1]; first compound 0.2 µM) of the same molecule?
The relative viability was 0.409.

What about the relative viability ([1]; first compound 0.6325 µM) of the same molecule?
Its relative viability is 0.445.

And the relative viability ([1]; first compound 2 µM)?
Its relative viability is 0.493.

And the relative viability ([2]; first compound 0.02 µM)?
The relative viability was 0.734.

And the relative viability ([2]; first compound 0.2 µM)?
Its relative viability is 0.677.

And the relative viability ([2]; first compound 0.6325 µM)?
Its relative viability is 1.08.

And the relative viability ([2]; first compound 2 µM)?
The relative viability was 0.57.

What about the relative viability ([3]; first compound 0.02 µM) of the same molecule?
Its relative viability is 0.218.

And the relative viability ([3]; first compound 0.2 µM)?
The relative viability was 0.165.

And the relative viability ([3]; first compound 0.6325 µM)?
Its relative viability is 0.161.

And the relative viability ([3]; first compound 2 µM)?
The relative viability was 0.151.

What about the relative viability ([4]; first compound 0.02 µM) of the same molecule?
The relative viability was 0.441.

What about the relative viability ([4]; first compound 0.2 µM) of the same molecule?
The relative viability was 0.388.

What about the relative viability ([4]; first compound 0.6325 µM) of the same molecule?
The relative viability was 0.404.

And the relative viability ([4]; first compound 2 µM)?
The relative viability was 0.357.

And the relative viability ([5]; first compound 0.02 µM)?
The relative viability was 0.265.

What about the relative viability ([5]; first compound 0.6325 µM) of the same molecule?
Its relative viability is 0.262.

And the relative viability ([5]; first compound 2 µM)?
The relative viability was 0.283.

And the relative viability ([6]; first compound 0.02 µM)?
Its relative viability is 0.694.

What about the relative viability ([6]; first compound 0.2 µM) of the same molecule?
Its relative viability is 0.657.

And the relative viability ([6]; first compound 0.6325 µM)?
Its relative viability is 0.81.

And the relative viability ([6]; first compound 2 µM)?
Its relative viability is 0.485.

And the relative viability ([7]; first compound 0.02 µM)?
Its relative viability is 0.691.

What about the relative viability ([7]; first compound 0.2 µM) of the same molecule?
The relative viability was 0.643.

And the relative viability ([7]; first compound 0.6325 µM)?
The relative viability was 0.706.

What about the relative viability ([7]; first compound 2 µM) of the same molecule?
The relative viability was 0.634.

Which results are given for CCNC(=O)c1noc(-c2cc(C(C)C)c(O)cc2O)c1-c1ccc(CN2CCOCC2)cc1 [Luminespib] + Cc1cc(Nc2cc(N3CCN(C)CC3)nc(Sc3ccc(NC(=O)C4CC4)cc3)n2)n[nH]1 [Tozasertib] (partner 0.1 µM)?
relative viability ([1]; first compound 0.002 µM): 0.218; relative viability ([1]; first compound 0.006325 µM): 0.204; relative viability ([1]; first compound 0.02 µM): 0.151; relative viability ([1]; first compound 0.06325 µM): 0.226; relative viability ([1]; first compound 0.2 µM): 0.134; relative viability ([2]; first compound 0.002 µM): 0.361; relative viability ([2]; first compound 0.006325 µM): 0.319; relative viability ([2]; first compound 0.02 µM): 0.211; relative viability ([2]; first compound 0.06325 µM): 0.113; relative viability ([2]; first compound 0.2 µM): 0.107; relative viability ([3]; first compound 0.002 µM): 0.184; relative viability ([3]; first compound 0.006325 µM): 0.194; relative viability ([3]; first compound 0.02 µM): 0.154; relative viability ([3]; first compound 0.06325 µM): 0.208; relative viability ([3]; first compound 0.2 µM): 0.182; relative viability ([4]; first compound 0.002 µM): 0.398; relative viability ([4]; first compound 0.006325 µM): 0.415; relative viability ([4]; first compound 0.02 µM): 0.386; relative viability ([4]; first compound 0.06325 µM): 0.306; relative viability ([4]; first compound 0.2 µM): 0.297; relative viability ([5]; first compound 0.006325 µM): 0.373; relative viability ([5]; first compound 0.02 µM): 0.362; relative viability ([5]; first compound 0.06325 µM): 0.578; relative viability ([5]; first compound 0.2 µM): 0.262; relative viability ([6]; first compound 0.002 µM): 0.812; relative viability ([6]; first compound 0.006325 µM): 0.577; relative viability ([6]; first compound 0.02 µM): 0.611; relative viability ([6]; first compound 0.06325 µM): 0.313; relative viability ([6]; first compound 0.2 µM): 0.154; relative viability ([7]; first compound 0.002 µM): 0.585; relative viability ([7]; first compound 0.006325 µM): 0.592; relative viability ([7]; first compound 0.02 µM): 0.646; relative viability ([7]; first compound 0.06325 µM): 0.214; relative viability ([7]; first compound 0.2 µM): 0.192

With Cc1csc(=NC2CCCCC2)n1/N=C/c1ccc(O)c(O)c1O [MIM1] + COc1cc2c(Oc3ccc(NC(=O)C4(C(=O)Nc5ccc(F)cc5)CC4)cc3F)ccnc2cc1OCCCN1CCOCC1 [Foretinib] (partner 0.25 µM) as the molecule, how does the relative viability ([1]; first compound 0.2 µM) read?
Its relative viability is 1.15.

And the relative viability ([1]; first compound 2 µM)?
The relative viability was 1.05.

And the relative viability ([1]; first compound 6.325 µM)?
Its relative viability is 1.07.

And the relative viability ([1]; first compound 20 µM)?
The relative viability was 0.25.

What about the relative viability ([8]; first compound 0.2 µM) of the same molecule?
Its relative viability is 0.917.

And the relative viability ([8]; first compound 0.6325 µM)?
The relative viability was 0.939.

And the relative viability ([8]; first compound 2 µM)?
The relative viability was 1.02.

What about the relative viability ([8]; first compound 6.325 µM) of the same molecule?
The relative viability was 0.771.

And the relative viability ([8]; first compound 20 µM)?
The relative viability was 0.144.

What about the relative viability ([2]; first compound 0.2 µM) of the same molecule?
The relative viability was 1.03.

What about the relative viability ([2]; first compound 0.6325 µM) of the same molecule?
The relative viability was 1.16.

What about the relative viability ([2]; first compound 2 µM) of the same molecule?
Its relative viability is 1.2.

What about the relative viability ([2]; first compound 6.325 µM) of the same molecule?
The relative viability was 0.68.

And the relative viability ([2]; first compound 20 µM)?
The relative viability was 0.475.

And the relative viability ([9]; first compound 0.2 µM)?
The relative viability was 0.847.

What about the relative viability ([9]; first compound 0.6325 µM) of the same molecule?
The relative viability was 0.894.

What about the relative viability ([9]; first compound 2 µM) of the same molecule?
Its relative viability is 0.816.

And the relative viability ([9]; first compound 6.325 µM)?
The relative viability was 0.797.

And the relative viability ([9]; first compound 20 µM)?
The relative viability was 0.318.

What about the relative viability ([10]; first compound 0.2 µM) of the same molecule?
The relative viability was 0.108.

And the relative viability ([10]; first compound 0.6325 µM)?
The relative viability was 0.102.

What about the relative viability ([10]; first compound 2 µM) of the same molecule?
The relative viability was 0.119.

What about the relative viability ([10]; first compound 6.325 µM) of the same molecule?
The relative viability was 0.106.

And the relative viability ([10]; first compound 20 µM)?
Its relative viability is 0.119.

And the relative viability ([11]; first compound 0.2 µM)?
The relative viability was 1.11.

What about the relative viability ([11]; first compound 0.6325 µM) of the same molecule?
Its relative viability is 1.29.

What about the relative viability ([11]; first compound 2 µM) of the same molecule?
The relative viability was 1.28.

And the relative viability ([11]; first compound 6.325 µM)?
Its relative viability is 0.842.

And the relative viability ([11]; first compound 20 µM)?
The relative viability was 0.476.

What about the relative viability ([3]; first compound 0.2 µM) of the same molecule?
Its relative viability is 1.46.

And the relative viability ([3]; first compound 2 µM)?
The relative viability was 1.33.

What about the relative viability ([3]; first compound 6.325 µM) of the same molecule?
The relative viability was 1.17.

And the relative viability ([3]; first compound 20 µM)?
The relative viability was 0.218.

And the relative viability ([12]; first compound 0.2 µM)?
Its relative viability is 1.15.

What about the relative viability ([12]; first compound 0.6325 µM) of the same molecule?
The relative viability was 1.09.

And the relative viability ([12]; first compound 2 µM)?
Its relative viability is 1.14.

What about the relative viability ([12]; first compound 6.325 µM) of the same molecule?
The relative viability was 1.06.

What about the relative viability ([12]; first compound 20 µM) of the same molecule?
Its relative viability is 1.06.

And the relative viability ([4]; first compound 0.2 µM)?
Its relative viability is 0.88.

And the relative viability ([4]; first compound 0.6325 µM)?
Its relative viability is 0.721.

What about the relative viability ([4]; first compound 2 µM) of the same molecule?
The relative viability was 0.914.

What about the relative viability ([4]; first compound 6.325 µM) of the same molecule?
The relative viability was 0.718.

What about the relative viability ([4]; first compound 20 µM) of the same molecule?
The relative viability was 0.409.

And the relative viability ([6]; first compound 0.2 µM)?
The relative viability was 0.722.

And the relative viability ([6]; first compound 0.6325 µM)?
Its relative viability is 0.741.

What about the relative viability ([6]; first compound 2 µM) of the same molecule?
Its relative viability is 0.824.

What about the relative viability ([6]; first compound 6.325 µM) of the same molecule?
The relative viability was 0.648.

What about the relative viability ([6]; first compound 20 µM) of the same molecule?
Its relative viability is 0.652.

What about the relative viability ([13]; first compound 0.2 µM) of the same molecule?
Its relative viability is 0.417.

And the relative viability ([13]; first compound 0.6325 µM)?
Its relative viability is 0.391.

What about the relative viability ([13]; first compound 2 µM) of the same molecule?
The relative viability was 0.375.

What about the relative viability ([13]; first compound 6.325 µM) of the same molecule?
The relative viability was 0.296.

What about the relative viability ([13]; first compound 20 µM) of the same molecule?
The relative viability was 0.181.

And the relative viability ([7]; first compound 0.2 µM)?
The relative viability was 0.882.

What about the relative viability ([7]; first compound 0.6325 µM) of the same molecule?
Its relative viability is 0.927.

What about the relative viability ([7]; first compound 2 µM) of the same molecule?
Its relative viability is 0.902.

What about the relative viability ([7]; first compound 6.325 µM) of the same molecule?
The relative viability was 0.72.

What about the relative viability ([7]; first compound 20 µM) of the same molecule?
The relative viability was 0.563.
